These results are taken from article PMC7894522, “Structure Based Design of Bicyclic Peptide Inhibitors of RbAp48” (Angewandte Chemie (International Ed. in English), 2020).

In this assay the test system is U2OS cells. The experiment in a line: Morphological cell painting assay. It is filed as cell-based. As to conditions: U2OS cells, 20 h, 579 parameters, fraction of significantly changed parameters vs DMSO; 10, 3 or 1 µM. The text has this: Encouraged by the promising results from the pulldown experiment, and in order to get insight into bioactivity and possible mode of action, we analyzed peptide 33 in a morphological cell painting assay. The cell painting assay is a target agnostic assay which determines a cells morphological profile after treatment with a compound of interest and compares it to the profiles of a set of reference compounds. ^[22] By identifying reference compounds with a similar profile a hypothesis of the compounds mode of action can be generated based on their annotated targets. ^[23] U2OS cells were treated with our compound and 579 parameters were analyzed. […] We therefore synthesized a variant modified with an N‐terminal TAT sequence to enhance its permeability (compound 49, see Table 1 and Supplemental Figure 4). ^[24] […] Applying compound 49 to the cell painting assay led to an induction of 5.9 % and the corresponding profile was compared to the set of 3000 reference compounds. […] To validate this hypothesis, we exposed U2OS cells to compound 49 and evaluated the levels of p53 by Western blot. […] The exact mechanism by which the compounds elevate levels of p53 requires further investigation. However, it has previously been shown that the NuRD complex, of which RbAp48 is a core component, is able to deacetylate p53 and thereby modulate its stability. ^[26] The effect is mediated by the MTA family of proteins from which the compounds described here are derived. […]
The described assay follows closely the method described by Bray et al. Initially, 5 µl U2OS medium were added to each well of a 384 -well plate (PerkinElmer CellCarrier -384 Ultra). Subsequently, U2OS cell were seeded with a density of 1600 cells per well in 20 µl medium. The plate was incubated for 10 min at the ambient temperatu re, followed by an a dditional 4 h incubation (37 °C, 5 % CO2). Compound treatment was performed with the Echo 520 acoustic dispenser (Labcyte) at final concentrations of 10 µM, 3 µM or 1 µM. Incubation with compound was performed for 20 h (37 °C, 5 % CO2). Subsequently, mitoc hondria were stained with Mito Tracker Deep Red (Thermo Fisher Scientific, Cat. No. M22426). The Mito Tracker Deep Red stock solution (1 mM) was diluted to a final concentration of 100 nM in prewarmed medium. The medium was removed fr om the plate leaving 1 0 µl residual volume and 25 µl of the Mito Tracker solution were added to each well. 22 The plate was incubated for 30 min in darkness (37 °C, 5 % CO2). To fix the cells 7 µl of 18.5 % formaldehyde in PBS were added, resulting in a fi nal formaldehyde conce ntration of 3.7 %. Subsequently, the plate was incubated for another 20 min in darkness (RT) and washed three times with 70 µl of PBS. (Biotek Washer Elx405). Cells were permeabilized by addition of 25 µl 0.1 % Triton X -100 to each well, followed by 15 min incubation (RT) in darkness. The cells were washed three times with PBS leaving a final volume of 10 µl. To each well 25 µl of a staining solution were added, which contains 1 % BSA, 5 µl/mL Phalloidin (Thermo Fisher Scientific, A123 81), 25 µg/ml Concanav alin A (Thermo Fisher Scientific, Cat. […]
conjugate (Thermo Fisher Scientific, Cat. No. W11262) and […] SYTO 14 solution (Thermo Fisher Scientific, Cat. No. S7576). The plate is incubated for 30 min (RT) in darkness and washed three times with 70 µl PBS. After the final washing step the PBS was not aspirated. The plates were sealed and centrifuged for 1 min at 500 rpm.
The plates were prepare d in triplicates with shifted layouts to reduce plate effects and imaged using a Micro XL High-Content Screening System (Molecular Devices) in 5 channels (DAPI: Ex350 -400/ Em410- […]
The generated images were processed with the CellProfiler package (https://cellprofiler.org/, version 3.0.0) on a computing cluster of the Max Planck Society to extract 1716 cell features (parameters) per microscope site. The data was then further aggregated as medians per well (9 sites -> 1 well), then […]

Starred links: 1 amine or outer side, 2 acyl side, 3 side chain; linkers in the order of their positions; H or OH if unused. Positions of bridges follow the written chain, without caps; N, C: chain ends. Residues, ends and D or L forms follow the SMILES beside them. TBMB = c1c(C[*:1])cc(C[*:3])cc1C[*:2]

Take `CC(=O)N[C@H]1CSCc2cc3cc(c2)CSC[C@@H](C(=O)N[C@@H](C)C(N)=O)NC(=O)[C@@H]2CCCN2C(=O)[C@H](CCCCN)NC(=O)[C@H](Cc2ccc(O)cc2)NC(=O)[C@@H]2CCCN2C(=O)[C@H](CCCNC(=N)N)NC(=O)[C@H](CCCNC(=N)N)NC(=O)[C@H](C)NC(=O)[C@H](CSC3)NC(=O)[C@H](CCCNC(=N)N)NC(=O)[C@H](CCCCN)NC(=O)[C@H]([C@@H](C)O)NC1=O` [Peptide 33] (Ac-CTKRCARRPYKPCA-NH2; linker 1-5-13 via TBMB): the induction result is listed as “no induction”.
